Target: T1, PXR (Homo sapiens, UniProt O75469)
T1 construct: expressed in transfected cells; host or cells: HepG2 cells, transient electroporation with pSG5-PXR and the CYP3A4-PXRE-LUC reporter
T1 sequence (O75469 1-434): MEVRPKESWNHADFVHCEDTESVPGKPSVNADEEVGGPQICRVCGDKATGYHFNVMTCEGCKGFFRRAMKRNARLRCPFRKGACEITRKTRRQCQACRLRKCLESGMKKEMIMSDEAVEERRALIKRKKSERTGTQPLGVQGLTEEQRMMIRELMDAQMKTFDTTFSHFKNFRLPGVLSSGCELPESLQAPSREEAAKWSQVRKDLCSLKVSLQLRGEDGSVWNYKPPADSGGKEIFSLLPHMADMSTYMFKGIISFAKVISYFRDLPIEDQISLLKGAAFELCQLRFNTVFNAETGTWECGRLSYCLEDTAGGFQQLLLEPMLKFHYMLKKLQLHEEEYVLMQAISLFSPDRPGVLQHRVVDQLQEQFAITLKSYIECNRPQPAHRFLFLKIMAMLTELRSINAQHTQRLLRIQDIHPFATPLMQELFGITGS
Assay: PXR activation, luciferase reporter gene assay in HepG2 cells
Type: cell-based
Procedure: The modulation of PXR activity by test samples was determined in HepG2 cells transiently transfected with pSG5-PXR (25 μg) and PCR5 plasmid DNA (25 μg) by electroporation at 180 V, 1 pulse for 70 msec. The cells were plated in 96-well plates at a density of 50,000 cells per well. After 24 h, test samples and drug controls were added at various concentrations. After additional 24 hour incubation, the media was aspirated and 40 μL of luciferase reagent (Promega Corporation, Madison, WI, USA) was added to each well and luminescence was measured on Spectramax M5 plate reader (Molecular Devices, Sunnyvale, CA, USA). The fold induction in luciferase activity in the treated cells was calculated in comparison to vehicle treated cells.

## CCCC/C=C\CCCCCCCCCc1cc(O)cc2oc3cc(OC)c(O)c(CCCCCCCCC/C=C\CCCC)c3c12 [Fatimahol]
HepG2, 30 μM (highest tested concentration), vs vehicle
  Induction of PXR activity: 1.8 fold
HepG2, below 30 μM
  Induction of PXR activity at lower concentration: not significant

Source: article PMC4126480, “Evaluation of drug interaction potential of Labisia pumila (Kacip Fatimah) and its constituents” (Frontiers in Pharmacology, 2014)
